Where “and” joins values, the source holds several entries; their conditions need not be identical. Equal values may be shown once. Read-outs that look alike come from different tables or passages of the source.
Assays:
[1] = tested on: Myc transcriptional output in Mino B cells; assay: RNA sequencing and gene set enrichment; assay type: cell-based, human; details: 1 μM, 6 hours
Description: Mino cells (acquired from the ATCC) were grown at 37° C. in a 5% CO2 humidified incubator and cultured in RPMI-1640 (Biological Industries), supplemented with 15% fetal bovine serum (Biological Industries) and 1% pen-strep solution (Biological Industries). 11×10^6 cells were incubated with 1 μM Pin1-3 (0.02% DMSO) or with 0.02% DMSO in triplicates for 6 hours. Total RNA was isolated with RNeasy™ kit (Qiagen). RNA libraries were prepared from 2 μg total RNA using SENSE™ mRNA-Seq library prep kit V2 (Lexogen). Total RNA and library quality was analyzed using Qubit™ fluorometric and TapeStation™ analysis (Agilent). Samples were sequenced using NextSeg™ 500/550 High Output Kit v2.5 (Illumina) on NextSeg™ 550.
RNA-seq reads were aligned to the human genome (hg19 assembly) using STAR [Dobin et al., Bioinformatics 2013, 29:15-21] and gene expression was determined using RSEM [L1 & Dewey, BMC Bioinformatics 2011, 12:323] and RefSeq annotations. Differential expression was computed using DESeq2 [Love et al., Genome Biol 2014, 15:550] with default parameters.
In order to test whether Pin1-3 affects Myc transcriptional output, Mino B cells were treated with Pin1-3 (1 μM) for 6 hours (in triplicates) or vehicle (DMSO), followed by a global RNA sequencing analysis to detect differentially expressed genes as the result of this perturbation. […]

[2] = molecular target: T1, catalytic domain of Pin1 (Homo sapiens, UniProt Q13526); assay: Intact protein LC/MS labeling of Pin1; assay type: binding
T1 construct: The purified catalytic domain of Pin1 was incubated with the fragment library
Description: 993 compounds were transferred to a 384-well plate working copy by combining 0.5 μl of 20 mM stock solution of four or five compounds per well. The catalytic domain of Pin1 (2 μM) in 20 mM Tris, 75 mM NaCl, pH 7.5 was incubated with 200 μM for each compound and moderately shaken for 24 hours at 4° C. The reaction was stopped by the addition of formic acid to 0.4% (v/v) final concentration.
Liquid chromatography/mass spectroscopy runs were performed on an Acquity™ UPLC® H-class system (Waters) in positive ion mode using electrospray ionization (ESI). UPLC separation was performed on a C4 column (300 Å, 1.7 μM, […]). The column was held at 40° C., and the autosampler at 10° C. Mobile solution A was 0.1% formic acid in water and mobile phase B was 0.1% formic acid in acetonitrile. Run flow was 0.4 ml/minute; and a gradient of 20% B for 2 minutes, increasing linearly to 60% B for 3 minutes, holding at 60% B for 1.5 minutes, changing to 0% B in 0.1 minute and holding at 0% for 1.4 minutes, was used. Desolvation temperature was 500° C. with a flow rate of 1000 liters/hour. The capillary voltage was 0.69 kV and cone voltage 46 V. Raw data was processed using OpenLynx™ software and deconvoluted using the MaxEnt tool. Labeling assignment was performed as described in Resnick et al. [J Am Chem Soc 2019, 141:8951-8968].
For the screening 2 μl of each of the 448 click products as 50 μM DMSO stocks were transferred into a 384-well plate working plate. 48 μl of catalytic domain of Pin1 (2 μM) in 20 mM Tris (pH 7.5) with 75 mM NaCl were added and moderately shaken and incubated for 15 minutes at room temperature. The reaction was stopped by the addition of formic acid to 0.4% (v/v) final concentration (20 μl). The mixtures were analyzed by liquid chromatography/mass spectroscopy analogously to the electrophile library incubations described herein. Hits were retrospectively analyzed by liquid chromatography/mass spectroscopy (LC-MS) to ensure reaction completion.
For each measured well, processed peaks were searched to match the mass of unlabeled protein or common small adducts of the unlabeled protein, which were found in the control sample or labeled protein. Labeling percentage for a compound was determined as the labeling of a specific compound divided by the overall detected protein species. Peaks whose mass could not be assigned were discarded from the overall labeling calculation. Data was analyzed using a python script for processing the MaxEnt-deconvoluted spectra. Peaks were normalized from ion counts to percentages, where the highest peak is defined as 100%. The unlabeled protein mass is deduced from a reference well that contains just the protein.
The purified catalytic domain of Pin1 was incubated with the fragment library (2 μM protein, 200 μM compound; 24 hours at 4° C.), followed by intact protein liquid chromatography/mass-spectrometry (LC/MS) to identify and quantify compound labeling. FIG. 1 depicts an example of a compound identified in this manner.
Based on the docking predictions, a total of 26 compounds that featured a range of small or bulky aliphatic, arylic, biphenylic or heterocyclic side-chains (structures depicted in FIG. 5), were synthesized or purchased. In order to identify potent binders, the irreversible labeling efficiency of these second-generation compounds was assessed alongside the original screening hits under more stringent conditions, with a 1:1 ratio of protein to compound (2 μM compound; 1 hour at room temperature).
For further optimization of the lipophilic moiety, an alkyne side chain-bearing analog was prepared, which was derivatized with 448 different azides using copper-catalyzed azide-alkyne cycloaddition (CuAAC).

[3] = Pharmacokinetics, intravenous administration; assay type: in vivo, Male C57Bl/6J mice
Description: Male C57Bl/6J mice received Pin1-3 intravenously (as a 0.2 mg/ml solution in 5/5/90 NMP/Solutol/saline) or orally (as a 1 mg/ml solution in 5/5/90 NMP/Solutol/saline). The intravenous dosage was 2 mg/kg and the oral dosage was 10 mg/kg.

[4] = intravenous 2 mg/kg, individual mice No. 1-3, 2 mg/kg
[5] = male, C57Bl/6J, mouse, in vivo, iv, 2 mg/kg, Avg. of 3 mice
[6] = male, C57Bl/6J, mouse, in vivo, iv, 2 mg/kg, individual mice No. 1-3

T1 sequence (Q13526 52-163 limits assumed): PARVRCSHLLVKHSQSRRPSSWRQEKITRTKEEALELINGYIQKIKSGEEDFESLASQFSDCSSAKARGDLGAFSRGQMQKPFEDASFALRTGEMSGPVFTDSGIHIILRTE

SMILES: CC(C)(C)CN(C(=O)CCl)C1CCS(=O)(=O)C1 (centres unmarked) [Pin1-3, 2-chloro-N-(sulfolan-3-yl)-N-neopentylacetamide]
- Myc transcriptional signature (Enrichr, ENCODE TF ChIP-seq sets) [1]: significant downregulation of Myc's transcriptional signature
- Number of genes significantly downregulated [1]: 206 genes
- Labeling [%] ([2]; 2 μM Pin1 with 2 μM test compound for 15 minutes at room temperature): 10%
- Labeling [%] ([2]; 2 μM Pin1 with 2 μM test compound for 1 hour at room temperature): 48%
- AUC % extrap. ([3]; intravenous 2 mg/kg, Avg. of 3 mice): 0.23%
- AUC % extrap. [3, 4]: 0.36% and 0.17% and 0.18%
- AUCINF obs. [3, 4]: 294012 ng·min/mL and 365536 ng·min/mL
- AUClast [3, 4]: 293517 min*ng/ml and 17.4 hr*μM and 364891 min*ng/ml and 21.6 hr*μM
- Cl obs. [3, 4]: 6.80 mL/min/kg and 5.47 mL/min/kg
- Cmax [3, 4]: 1620 ng/mL and 2030 ng/mL
- MRTINF obs. [3, 4]: 113 min and 109 min
- T1/2 [3, 4]: 40.8 min and 43.2 min
- VSS obs. [3, 4]: 0.77 L/kg and 0.60 L/kg
- Cmax ([3]; intravenous 2 mg/kg, individual mice No. 1-3, 2 mg/kg, read-out: Cmax): 5.76 µM and 7.22 µM
- AUC(0-t) [3, 5]: 6050 ng·h/mL and 21.5 µM·h
- half-life [3, 5]: 45.6 min
- AUC(0-inf) ([3]; male, C57Bl/6J, mouse, in vivo, iv, 2 mg/kg, Avg. of 3 mice, read-out: AUCINF obs. (converted)): 6070 ng·h/mL
- clearance ([3]; male, C57Bl/6J, mouse, in vivo, iv, 2 mg/kg, Avg. of 3 mice, read-out: Cl obs.): 5.63 mL/min/kg
- Cmax ([3]; male, C57Bl/6J, mouse, in vivo, iv, 2 mg/kg, Avg. of 3 mice, read-out: Cmax): 2090 ng/mL and 7.42 µM
- MRT inf ([3]; male, C57Bl/6J, mouse, in vivo, iv, 2 mg/kg, Avg. of 3 mice, read-out: MRTINF obs.): 108 min
- Vd ([3]; male, C57Bl/6J, mouse, in vivo, iv, 2 mg/kg, Avg. of 3 mice, read-out: VSS obs.): 0.61 L/kg
- AUC(0-t) [3, 6]: 7190 ng·h/mL and 25.6 µM·h
- half-life [3, 6]: 53.4 min
- AUC(0-inf) ([3]; male, C57Bl/6J, mouse, in vivo, iv, 2 mg/kg, individual mice No. 1-3, read-out: AUCINF obs. (converted)): 7210 ng·h/mL
- clearance ([3]; male, C57Bl/6J, mouse, in vivo, iv, 2 mg/kg, individual mice No. 1-3, read-out: Cl obs.): 4.62 mL/min/kg
- Cmax ([3]; male, C57Bl/6J, mouse, in vivo, iv, 2 mg/kg, individual mice No. 1-3, read-out: Cmax): 2610 ng/mL and 9.28 µM
- MRT inf ([3]; male, C57Bl/6J, mouse, in vivo, iv, 2 mg/kg, individual mice No. 1-3, read-out: MRTINF obs.): 102 min
- Vd ([3]; male, C57Bl/6J, mouse, in vivo, iv, 2 mg/kg, individual mice No. 1-3, read-out: VSS obs.): 0.47 L/kg
- Tmax ([3]; male, C57Bl/6J, mouse, in vivo, intravenous 2 mg/kg, individual mice No. 1-3): 30 min

From patent publication US20210332024A1, “MODULATORS OF PIN1 ACTIVITY AND USES THEREOF” (Yeda Research and Development Co. Ltd., priority 2019, published 2021)
